In patent publication US20020082254A1, “Compounds for treating disorders where a decreased level of plasma FFA is desired” (priority 2000, published 2002):
Like-named read-outs stand apart in the source and are kept apart here.

Assays:
[1] = target: T1, Lipoprotein lipase (LPL) (Bos taurus, UniProt P11151); experiment: Lipoprotein lipase (LPL) inhibition assay, 3H-triolein/intralipid substrate; assay type: biochemical; conditions: read-out: LPL inhibition (% inh. at 50 μM)
T1 construct: Dr. Gunilla Olivecrona, Umea University (gift)
T1 sequence (P11151 29-478): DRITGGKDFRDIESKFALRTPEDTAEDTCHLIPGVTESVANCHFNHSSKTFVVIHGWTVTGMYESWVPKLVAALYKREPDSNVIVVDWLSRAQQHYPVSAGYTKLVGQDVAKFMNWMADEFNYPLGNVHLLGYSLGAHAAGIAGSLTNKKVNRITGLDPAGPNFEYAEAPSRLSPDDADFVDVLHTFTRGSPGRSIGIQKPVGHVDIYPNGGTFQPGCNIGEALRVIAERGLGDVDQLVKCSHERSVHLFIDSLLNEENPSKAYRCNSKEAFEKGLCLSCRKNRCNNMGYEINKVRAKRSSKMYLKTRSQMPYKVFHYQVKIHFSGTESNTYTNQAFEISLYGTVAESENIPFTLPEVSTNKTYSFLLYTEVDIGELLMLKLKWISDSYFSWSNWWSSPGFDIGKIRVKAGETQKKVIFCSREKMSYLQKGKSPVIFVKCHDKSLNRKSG
Text: (§1) Lipoprotein Lipase (LPL) [Classified as EC 3.1.1.34 in accordance with the Recommendations of the Nomenclature Committee of the International Union of Biochemistry and Molecular Biology (available on the World Wide Web at the following address: http://www.chem.qmw.ac.uk/iubmb/enzyme/)]
Materials. The lipoprotein lipase employed was obtained from Dr. Gunilla Olivecrona of Umea University, Sweden. ^3H-triolein (TO) from Amersham, Buckinghamshire, U.K., cat No. TRA191; 5-20 Ci/mmol dissolved in toluene. Intralipid is from Kabi-Fresenius). Apo CII was obtained from PMSF-treated plasma from overnight fasted rats. All other reagents are of commercial grade and obtained from various commercial sources.
Methods. The preparation of the substrate is as follows:
25 μl of ^3H-Triolein evaporated under a gentle stream of N2 in a 27° C. room in 4 ml chromacol glass followed by the addition of 1 ml 10% intralipid. This is mixed and sonicated on ice for 5 minutes (50% pulse mode). This can be kept for 1 week at 4° C.
100 μl assay medium (0.3M Tris-Cl, 0.2M NaCl, 0.2 mg heparin/ml and 120 mg BSA/ml (fraction V, Sigma no. 3401, pH 8.5))
All mixed in a 13×100 mm glass tube and incubated for at least 5 minutes.
2. Add 5 μl LPL (of a solution containing 500 mU/mg)
Mix and incubate for 30 minutes at 25° C.
3. The reaction is stopped with 3.25 ml of a solution containing Methanol:chloroform:heptan 10:9:7. Add 1.05 ml buffer (100 mM Boric acid, 100 mM potassium carbonate pH 10.5) and mix 10 seconds per vial.
5. Take 1 ml of the upper phase+10 ml scintillation fluid and mix
6. Scintillation count for 5 minutes per vial.

[2] = target: T2, Hormone-sensitive lipase (HSL) (Homo sapiens, UniProt Q05469); experiment: Hormone-sensitive lipase (HSL) inhibition assay, 3H-labeled triolein or MOME substrate; assay type: biochemical
T2 sequence (Q05469 1-1076): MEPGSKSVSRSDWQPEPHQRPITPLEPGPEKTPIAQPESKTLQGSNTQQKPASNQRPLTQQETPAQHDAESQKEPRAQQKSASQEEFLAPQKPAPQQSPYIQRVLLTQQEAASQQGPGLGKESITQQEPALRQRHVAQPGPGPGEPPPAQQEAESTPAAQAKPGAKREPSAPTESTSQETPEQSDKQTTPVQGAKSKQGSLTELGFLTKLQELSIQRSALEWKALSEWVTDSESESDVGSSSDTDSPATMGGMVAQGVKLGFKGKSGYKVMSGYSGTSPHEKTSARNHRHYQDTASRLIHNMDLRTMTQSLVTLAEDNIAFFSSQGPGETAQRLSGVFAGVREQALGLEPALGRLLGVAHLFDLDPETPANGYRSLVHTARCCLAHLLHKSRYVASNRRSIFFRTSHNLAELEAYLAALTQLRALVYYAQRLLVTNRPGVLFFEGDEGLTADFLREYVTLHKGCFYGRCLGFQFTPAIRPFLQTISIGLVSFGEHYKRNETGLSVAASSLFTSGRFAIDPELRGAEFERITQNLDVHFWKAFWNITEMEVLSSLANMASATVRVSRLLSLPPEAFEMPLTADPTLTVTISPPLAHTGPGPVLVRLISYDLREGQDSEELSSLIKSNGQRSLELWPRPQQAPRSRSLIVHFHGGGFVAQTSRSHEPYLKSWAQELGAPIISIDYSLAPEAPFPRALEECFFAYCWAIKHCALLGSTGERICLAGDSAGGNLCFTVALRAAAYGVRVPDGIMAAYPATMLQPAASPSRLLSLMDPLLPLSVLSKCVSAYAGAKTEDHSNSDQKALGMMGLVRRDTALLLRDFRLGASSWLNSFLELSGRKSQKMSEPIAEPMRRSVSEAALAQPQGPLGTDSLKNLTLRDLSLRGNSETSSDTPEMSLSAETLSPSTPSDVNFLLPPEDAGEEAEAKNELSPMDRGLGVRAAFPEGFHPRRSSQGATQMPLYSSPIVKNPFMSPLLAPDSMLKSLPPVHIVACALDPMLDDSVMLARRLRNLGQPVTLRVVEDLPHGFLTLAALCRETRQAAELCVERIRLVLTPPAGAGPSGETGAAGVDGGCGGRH
Text: as §1, with “Hormone-sensitive lipase (HSL) [classified” for “Lipoprotein Lipase (LPL) [Classified”, “as a triacylglycerol lipase,” for “as”, “3.1.1.3,” for “3.1.1.34”
Materials. The Hormone-sensitive lipase employed was provided by Dr. Cecilia Holm of Lund University, Sweden, or produced and purified by Novo Nordisk (NN) using the reagents and protocols employed by Dr. Holm. The substrates used are: ^3H-labeled triolein (TO) from Amersham, Buckinghamshire, U.K. cat No. TRA191; 5-20 Ci/mmol dissolved in toluene, triolein (Sigma, Cat. No. T-1740) and mono-oleoyl-2-O-mono-oleylglycerol (MOME) synthesized at (NN) using the protocols provided by Dr. Cecilia Holm, Lund University, Sweden. Phosphatidyl choline (PC) and phosphatidyl inositol (PI) are from Sigma (St Luis Mo., cat. Nos. P-3556 and P-5954, respectively). All other reagents are of commercial grade and obtained from various commercial sources.
Methods. The preparation of the substrates is as follows:
TO: 30 μl PC:PI (20 mg/ml solution of PC:PI 3:1 prepared in chloroform)+128 μl cold TO+15 μl ^3H-TO
MOME: 30 μl PC:PI+100 μl cold MOME+200 μl ^3H-MOME
They are then evaporated under a gentle stream of N2 followed by 20-30 minutes in a Speedvac™ apparatus to ensure the absence of residual solvent.
The samples are prepared as follows:
Samples/controls: 78 μl PED-BSA+20 μl inhibitor (various concentrations)+2 μl HSL (undiluted 0.12 mg/ml). If no inhibitors are being tested, the reaction contains 98 μl PED-BSA+2 μl HSL.
The samples are put on ice and then sonicated as follows:
With TO as substrate, add 2 ml potassium buffer (0.1M potassium phosphate, pH 7) and then sonicate twice for 1 minute, with a 1-minute interval between cycles. Add an additional 1 ml potassium buffer and sonicate 4 times for 30 seconds, with a 30 second interval in between cycles. To finish, add 1 ml BSA 20%-in potassium buffer, mix by inversion and store on ice until use.
With MOME as substrate: add 2 ml potassium buffer and then sonicate twice for 1 minute, with a 1 minute interval between cycles. Add 1.6 ml potassium buffer and sonicate 4 times for 30 seconds, with a 30-second interval between cycles. To finish, add 0.4 ml BSA 20%-buffer, mix by inversion and store on ice until use.
The enzyme reaction is run at 37° C. The substrate mix is added to the various reactions at 10 second intervals, incubated for 30 minutes in a water bath and then stopped with 3.25 ml of a solution containing CH3OH:CHCl3:heptane (10:9:7). After the addition of 1.05 ml potassium buffer pH10.5, the sample is vortexed thoroughly and centrifuged for 20 min at 2000 r.p.m. One ml of the upper phase is added to 10 ml scintillation fluid, and mixed thoroughly by shaking.
The samples are then counted, 5 min per vial, in a scintillation counter.

[3] = read-out: HSL inhibition (IC50)

Row | SMILES | inhibition at 50 µM [1] [%] | IC50 [2, 3] [nM] | IC50 [2] [nM]
1 | Cc1cccc(OC(=O)NN2CCc3ccccc3C2)c1 [Example 10, (3,4-Dihydro-1H-isoquinolin-2-yl)-carbamic Acid m-tolyl Ester] | 5 | 670 | 
2 | O=C(NN1CCc2ccccc2C1)Oc1ccc(-c2ccccc2)cc1 [Example 36] |  | > 10000 | 
3 | CCCc1ccc(OC(=O)NN2CCc3ccccc3C2)cc1 [Example 20, (3,4-Dihydro-1H-isoquinolin-2-yl)-carbamic Acid 4-propyl-phenyl Ester] | 4 | 240 | 
4 | COc1cc2c(cc1OC)CN(NC(=O)Oc1ccc(Cl)cc1)CC2 [Example 16, (6,7-Dimethoxy-3.4-dihydro-1H-isoquinolin-2-yl)-carbamic Acid 4-chloro-phenyl Ester] | 0 | 1400 | 
5 | O=C(NN1CCc2ccccc2C1)Oc1ccccc1F [Example 15, (3,4-Dihydro-1H-isoquinolin-2-yl)-carbamic Acid 2-fluoro-phenyl Ester] | 0 | 1500 | 
6 | COC(=O)Cc1ccc(OC(=O)NN2CCc3ccccc3C2)cc1 [Example 42] | 6 | 40 | 
7 | CC(=O)c1ccc(OC(=O)NN2CCc3ccccc3C2)cc1 [Example 45] |  | > 10000 | 
8 | O=C(NN1CCOCC1)Oc1ccc(Cl)cc1 [Example 49, Morpholin-4-yl-carbamic Acid 4-chloro-phenyl Ester] |  |  | 100
9 | O=C(NN1CCc2ccccc2C1)Oc1ccccc1Br [Example 14, (3,4-Dihydro-1H-isoquinolin-2-yl)-carbamic Acid 2-bromo-phenyl Ester] | 7 | 800 | 
10 | S=C(NN1CCc2ccccc2C1)Sc1ccccc1 [Example 50, (3,4-Dihydro-1H-isoquinolin-2-yl)-dithiocarbamic Acid Phenyl Ester] |  | > 10000 | 
11 | CC(=O)Nc1ccc(OC(=O)NN2CCc3ccccc3C2)cc1 [Example 25] |  | > 10000 | 
12 | O=C(NN1CCc2ccccc2C1)Oc1ccc(Cl)c(C(F)(F)F)c1 [Example 47] |  | > 10000 | 
13 | Cc1ccc(C(=O)c2ccc(OC(=O)NN3CCc4ccccc4C3)cc2)cc1 [Example 26] |  | > 10000 | 
14 | CCCOc1ccc(OC(=O)NN2CCc3ccccc3C2)cc1 [Example 39] | 2 | 2500 | 
15 | CN(C(=O)Oc1ccc(Cl)cc1)N1CCc2ccccc2C1 [Example 21, (3,4-Dihydro-1H-isoquinolin-2-yl)-methyl-carbamic Acid 4-chloro-phenyl Ester] | 5 | > 10000 | 
16 | O=C(NN1CCc2ccccc2C1)Oc1ccc(F)cc1 [Example 7] | 0 | 460 | 
17 | CCC(=O)c1ccc(OC(=O)NN2CCc3ccccc3C2)cc1 [Example 24] |  | > 10000 | 
18 | CN(C)CCc1ccc(OC(=O)NN2CCc3ccccc3C2)cc1 [Example 34] |  | > 10000 | 
19 | CCc1ccc(OC(=O)NN2CCc3ccccc3C2)cc1 [Example 28] | 3 | 70 | 
20 | O=C(NN1CCc2ccccc2C1)Oc1ccc(OC(F)(F)F)cc1 [Example 40] | 1 | 3400 | 
21 | O=C(NN1CCc2ccccc2C1)Oc1ccc(C(=O)CCCCl)cc1 [Example 44] |  | > 10000 | 
22 | CCC(C)c1ccc(OC(=O)NN2CCc3ccccc3C2)cc1 (stereo not shown) [Example 33] | 2 | 170 | 
23 | O=C(NN1CCc2ccccc2C1)Oc1ccc(OCc2ccccc2)cc1 [Example 29] | 0 | 2600 | 
24 | O=C(NN1CCc2ccccc2C1)Oc1ccc(Cc2ccccc2)cc1 [Example 27] | 5 |  | 90
25 | CCCCOc1ccc(OC(=O)NN2CCc3ccccc3C2)cc1 [Example 30] | 6 | 3800 | 
26 | COc1ccccc1OC(=O)NN1CCc2ccccc2C1 [Example 2, (3,4-Dihydro-1H-isoquinolin-2-yl)-carbamic acid 2-methoxy-phenyl Ester] | 2 | 6400 | 
27 | O=C(NN1CCc2ccccc2C1)Oc1ccc(C(=O)c2ccccc2)cc1 [Example 41] |  | > 10000 | 
28 | COC(=O)c1ccc(OC(=O)NN2CCc3ccccc3C2)cc1 [Example 4, 4-(3,4-Dihydro-1H-isoquinolin-2-ylcarbamoyloxy)-benzoic Acid Methyl Ester] | 20 | 9900 | 
29 | O=C(NN1CCCCC1)Oc1ccc(Cl)cc1 [Example 48, Piperidin-1-yl-carbamic Acid 4-chloro-phenyl Ester] |  |  | 50
